Patent US4518611A, “2-Furylbutyrolactone modulation of the immune system in mammals” (priority 1983, dated 1985)
“Also recorded” adds a separate entry of the source.

Assays:
[1] = test system: spleen lymphocytes; assay: In vitro lymphocyte stimulation assay, C57BL/6 spleen lymphocytes; assay type: cell-based, mouse
Method: The purpose of this assay is to challenge lymphocytes in microcultures with one or more polyclonal mitogens at concentrations that will induce mitogenesis within 72 hours of stimulation.
In the mouse model, spleens are removed from different strains of mice and the spleen cells are teased free and suspended in RPMI-1640 tissue culture medium at a concentration of usually […]. These cells are dispensed at a concentration of 5.0×10^5 cells per microculture well in a 96 well flat bottom 96 well tissue culture plate. All testing of the compounds of this invention or mitogens are done in replicates of 10. The cells are then treated with PHA, Con-A, specific antigens, or buffer only. If in vitro testing is done, varying concentrations of the compounds of this invention or buffer only are added to the cells as well. After treatment with the mitogens and/or compounds of this invention, the cells are incubated for 72 hours. The response of these cells to mitogens and/or the compounds of this invention is assessed using ^14 C-thymidine labeling on the fourth day at a concentration of 0.01 μCi/well. The labeled cells are harvested using a lymphocyte harvestor and placed onto fibrous paper discs. A scintillation cocktail is added to vials containing the discs and the results are obtained using a LKB-liquid scintillation counter (Model 1216/Rackbeta II). The data is expressed as a ratio of the cpm of the mitogen stimulated group to the control (nonmitogen) treated group=lymphocyte stimulation index (LSI).
The lymphocyte stimulation assay may be performed directly on spleen cells obtained from various strains of mice not treated with the compounds of this invention or on lymphocytes obtained from human […]. […] Alternatively, the mice may be treated in vivo with the compounds of this invention by intraperitoneal multi-dose schedules, followed by sacrifice and harvesting spleen lymphocytes. These cells are then tested for their response to polyclonal mitogens or specific antigens used to immunize the mice. In this system however, no additional compound is added to the in vitro lymphocyte stimulation assay system.
An in vitro lymphocyte stimulation assay is performed directly on normal spleen lymphocytes removed from five normal C57BL/6 mice, using concentrations of Cpd. […] Following three days of incubation the assay is completed.
An in vitro lymphocyte stimulation assay was performed using spleen lymphocytes from normal C57BL/6 mice. The lymphocytes were treated with either 1, 5, 10, 50 or 100 μg/well of Cpd. 1 or buffer.
Cpd. 2 was tested using normal spleen lymphocytes from C57BL/6 mice. A lymphocyte stimulation assay was conducted using either 1, 5, 10, 50, or 100 μg/well […] or just buffer.
Spleen cells from C57BL/6 mice were treated, in vitro, with the crystallizing reagents, succinic acid and succinimide. Since these compounds are spontaneously released from the molecular complex in solution at a molar ratio of 2 moles of Cpds. 1, 2, or 3 per mole of the crystalline reagent, these reagents were treated in the lymphocyte stimulation assay at proper molar concentrations.
The compound of example 3, Cpd. 3, was used to treat C57BL/6 spleen lymphocytes in vitro. The lymphocytes were treated with either 1, 5, 10, 50, or 100 μg/well of Cpd. 3 or just buffer and then a lymphocyte stimulation assay was performed.

[2] = test system: L5178Y target cells; assay: MLTC assay of cytotoxic lymphocyte (CTL) activity, L5178Y target cells; assay type: cell-based, mouse, DBA/2; details: for CTL activity (in words): with or without stimulator cells, any E/T ratio
Text: A mixed lymphocyte tumor culture (MLTC) immunoassay, used to determine the cytotoxic lymphocyte (CTL) activity employs lymphocytes from either immunized (sensitized) mice or DBA/2 tumor dormant state animals in various stages of the tumor dormant state (TDS). The assay employs L5178Y target cells labeled with ^51 Chromium and effector cells (sensitized lymphocytes) from the above-mentioned sources. Effector-target cell ratios will vary with different experimental conditions and may or may not include irradiated stimulator L5178Y cells. Results are expressed as % lysis of target cells based on ratio of cpm of test group over cpm of total release (maximum) both of which are corrected for spontaneous release of ^51 Cr. The assay can be performed as an 8 or 18 hour release assay.
Ten days later the resultant tumor nodule, about 1 cm in size, is surgically excised. If the excision was successful, no subcutaneous tumors develop at the site of implantation. […] These mice are considered to be in the tumor dormant state. […]
DBA/2 mice in the early stage of TDS, prior to challenge with viable L5178Y tumor cells, were used to measure the effect of Cpd. 2 on CTL activity. Cpd. 2, 0.1, 1.0, 10 or 100 μg/ml, or just buffer was added in 100 ul volumes to MLTC microculture wells containing washed spleen lymphocytes from DBA/2 mice, effector, and L5178Y target cells at varying ^E /T ratios. The MLTC reaction was performed in the presence or absence of irradiated L5178Y stimulator cells. […]

Cc1ccc(C2(O)C(=O)OC3C(O)COC32O)o1.Cc1ccc(C2(O)C(=O)OC3C(O)COC32O)o1.O=C1CCC(=O)O1 (stereo not shown) [Cpd. 1, 2-furylbutyrolactone:succinic anhydride]
Lymphocyte Stimulation Index, Control (no mitogen) ([1]; 5 μg/well): 1.8
Lymphocyte Stimulation Index, Control (no mitogen) ([1]; 50 μg/well): .20
Lymphocyte Stimulation Index, Control (no mitogen) ([1]; 100 μg/well): .20
Lymphocyte Stimulation Index, Control (no mitogen) ([1]; .001 μg/well): 3.8
Lymphocyte Stimulation Index, Control (no mitogen) ([1]; .01 μg/well): 3.2
Lymphocyte Stimulation Index, Control (no mitogen) ([1]; .1 μg/well): 3.2
% Lysis ([2]; 0.001 μg/ml, E/T 10:1, TDS, without stimulator cells): 3.9%
% Lysis ([2]; 0.01 μg/ml, E/T 10:1, TDS, without stimulator cells): 3.5%
% Lysis ([2]; 0.01 μg/ml, E/T 100:1, TDS, without stimulator cells): 26.0%
% Lysis ([2]; 0.1 μg/ml, E/T 10:1, TDS, without stimulator cells): 3.5%
% Lysis ([2]; 0.1 μg/ml, E/T 30:1, TDS, with stimulator cells): 51.0%
% Lysis ([2]; 0.1 μg/ml, E/T 100:1, TDS, with stimulator cells): 79.0%
% Lysis ([2]; 1.0 μg/ml, E/T 10:1, TDS, without stimulator cells): 4.6%
% Lysis ([2]; 1.0 μg/ml, E/T 30:1, TDS, with stimulator cells): 46.0%
% Lysis ([2]; 1.0 μg/ml, E/T 30:1, TDS, without stimulator cells): 20.0%
% Lysis ([2]; 10 μg/ml, E/T 6.25:1, TDS, without stimulator cells): .7%
% Lysis ([2]; 10 μg/ml, E/T 10:1, TDS, without stimulator cells): 4.6%
% Lysis ([2]; 10 μg/ml, E/T 12.5:1, TDS, without stimulator cells): 6.9%
% Lysis ([2]; 10 μg/ml, E/T 25:1, TDS, with stimulator cells): 72.0%
% Lysis ([2]; 10 μg/ml, E/T 25:1, TDS, without stimulator cells): 8.1%
% Lysis ([2]; 10 μg/ml, E/T 30:1, TDS, with stimulator cells): 42.0%
% Lysis ([2]; 100 μg/ml, E/T 6.25:1, TDS, without stimulator cells): 6.1%
% Lysis ([2]; 100 μg/ml, E/T 10:1, TDS, without stimulator cells): 8.6%
% Lysis ([2]; 100 μg/ml, E/T 100:1, TDS, without stimulator cells): 42.0%
% Lysis ([2]; E + D, E/T 10:1, TDS effectors, no stimulators): 9.0%
enhancement of CTL activity (in words) ([2]; L5178Y target, TDS effectors with stimulator cells): significant specific enhancement of CTL activity of effector cells in the presence of stimulator cells
% Lysis ([2]; N + S + D, E/T 30:1, normal spleen cells + stimulators): -9.7%
% Lysis ([2]; N + S + D, E/T 100:1, normal spleen cells + stimulators): -9.5%
CTL activity (in words) ([2]; TDS 10 days after challenge): significant increase in CTL activity

2-furylbutyrolactone:succinimide [Cpd. 2]
Lymphocyte Stimulation Index, Con-A ([1]; 1 μg/well): 147
Lymphocyte Stimulation Index, Control (no mitogen) ([1]; 1 μg/well): .92
Lymphocyte Stimulation Index, PHA ([1]; 1 μg/well): 25.4
Lymphocyte Stimulation Index, Con-A ([1]; 5 μg/well): 148
Lymphocyte Stimulation Index, Control (no mitogen) ([1]; 5 μg/well): 1.2
Lymphocyte Stimulation Index, PHA ([1]; 5 μg/well): 29.8
Lymphocyte Stimulation Index, Con-A ([1]; 10 μg/well): 164
Lymphocyte Stimulation Index, Control (no mitogen) ([1]; 10 μg/well): 1.1
Lymphocyte Stimulation Index, PHA ([1]; 10 μg/well): 38.8
Lymphocyte Stimulation Index, Con-A ([1]; 50 μg/well): 218
Lymphocyte Stimulation Index, Control (no mitogen) ([1]; 50 μg/well): .80
Lymphocyte Stimulation Index, PHA ([1]; 50 μg/well): 45.8
Lymphocyte Stimulation Index, Con-A ([1]; 100 μg/well): 144
Lymphocyte Stimulation Index, Control (no mitogen) ([1]; 100 μg/well): .49
Lymphocyte Stimulation Index, PHA ([1]; 100 μg/well): 3.83
effect on Con-A response (in words) ([1]; in vitro, Con-A): the 200 μg/well dose had a stimulatory effect; also recorded: the 400 μg/well doses had an anti-proliferative effect
% Lysis ([2]; 0.1 μg/ml, E/T 12.5:1, pre-challenge TDS, with stimulator cells): 47.5%
% Lysis ([2]; 0.1 μg/ml, E/T 12.5:1, pre-challenge TDS, without stimulator cells): 16.5%
% Lysis ([2]; 0.1 μg/ml, E/T 25:1, pre-challenge TDS, with stimulator cells): 64.0%
% Lysis ([2]; 0.1 μg/ml, E/T 25:1, pre-challenge TDS, without stimulator cells): 29.5%
% Lysis ([2]; 0.1 μg/ml, E/T 50:1, pre-challenge TDS, with stimulator cells): 69.5%
% Lysis ([2]; 0.1 μg/ml, E/T 50:1, pre-challenge TDS, without stimulator cells): 43.5%
% Lysis ([2]; 0.1 μg/ml, E/T 100:1, pre-challenge TDS, with stimulator cells): 74.5%
% Lysis ([2]; 0.1 μg/ml, E/T 100:1, pre-challenge TDS, without stimulator cells): 48.0%
% Lysis ([2]; 1 μg/ml, E/T 12.5:1, pre-challenge TDS, with stimulator cells): 58.0%
% Lysis ([2]; 1 μg/ml, E/T 25:1, pre-challenge TDS, with stimulator cells): 69.5%
% Lysis ([2]; 1 μg/ml, E/T 50:1, pre-challenge TDS, with stimulator cells): 72.5%
% Lysis ([2]; 1 μg/ml, E/T 100:1, pre-challenge TDS, with stimulator cells): 75.5%
% Lysis ([2]; 10 μg/ml, E/T 12.5:1, pre-challenge TDS, with stimulator cells): 58.5%
% Lysis ([2]; 10 μg/ml, E/T 12.5:1, pre-challenge TDS, without stimulator cells): 26.5%
% Lysis ([2]; 10 μg/ml, E/T 25:1, pre-challenge TDS, with stimulator cells): 72.5%
% Lysis ([2]; 10 μg/ml, E/T 25:1, pre-challenge TDS, without stimulator cells): 40.0%
% Lysis ([2]; 10 μg/ml, E/T 50:1, pre-challenge TDS, with stimulator cells): 72.5%
% Lysis ([2]; 10 μg/ml, E/T 50:1, pre-challenge TDS, without stimulator cells): 56.5%
% Lysis ([2]; 10 μg/ml, E/T 100:1, pre-challenge TDS, with stimulator cells): 73.5%
% Lysis ([2]; 10 μg/ml, E/T 100:1, pre-challenge TDS, without stimulator cells): 61.5%
% Lysis ([2]; 100 μg/ml, E/T 12.5:1, pre-challenge TDS, with stimulator cells): 47.0%
% Lysis ([2]; 100 μg/ml, E/T 25:1, pre-challenge TDS, with stimulator cells): 65.0%
% Lysis ([2]; 100 μg/ml, E/T 50:1, pre-challenge TDS, with stimulator cells): 73.5%
% Lysis ([2]; 100 μg/ml, E/T 100:1, pre-challenge TDS, with stimulator cells): 78.5%
CTL activity (in words) ([2]; pre-challenge TDS): increase in CTL activity
